Test results as given in US7851467B2, “Carbamate compounds as 5-HT4 receptor agonists” (Theravance, Inc., priority 2005, dated 2010).

Biological target: T1, human 5-HT4(c) receptor (Homo sapiens, UniProt Q13639)
T1 construct: expressed in transfected cells; host or cells: HEK-293
Assay: Whole-cell cAMP accumulation flashplate assay with HEK-293 cells expressing human 5-HT4(c) receptors
Type: cell-based
Conditions: cell line (1) having a density of about 0.5-0.6 μmol/mg protein, read-out: pEC50 value (converted)
Procedure: Assay 3: Whole-Cell cAMP Accumulation Flashplate Assay with HEK-293 Cells Expressing Human 5-HT4(c) Receptors
In this assay, the functional potency of a test compound was determined by measuring the amount of cyclic AMP produced when HEK-293 cells expressing 5-HT4 receptors were contacted with different concentrations of test compound.
HEK-293 (human embryonic kidney) cells stably-transfected with cloned human 5-HT4(c) receptor cDNA were prepared expressing the receptor at two different densities: (1) at a density of about 0.5-0.6 pmol/mg protein, as determined using a [^3H]-GR113808 membrane radioligand binding assay, and (2) at a density of about 6.0 pmol/mg protein. […]
Cells were grown to roughly 60-80% confluency. […] The cells were counted with a Coulter counter (count above 8 μm, flask yield was 1-2×10^7 cells/flask). […]
Cells were grown and prepared as described above. […] Bound radioactivity was quantified by scintillation proximity spectroscopy using the Topcount (Packard BioScience Co., Meriden, Conn.).
The amount of cAMP produced per mL of reaction was extrapolated from the cAMP standard curve, according to the instructions provided in the manufacturer's user manual. Data were analyzed by nonlinear regression analysis with the GraphPad Prism Software package using the 3-parameter sigmoidal dose-response model (slope constrained to unity). […]

T1 sequence (Q13639 1-380 isoform Q13639-4): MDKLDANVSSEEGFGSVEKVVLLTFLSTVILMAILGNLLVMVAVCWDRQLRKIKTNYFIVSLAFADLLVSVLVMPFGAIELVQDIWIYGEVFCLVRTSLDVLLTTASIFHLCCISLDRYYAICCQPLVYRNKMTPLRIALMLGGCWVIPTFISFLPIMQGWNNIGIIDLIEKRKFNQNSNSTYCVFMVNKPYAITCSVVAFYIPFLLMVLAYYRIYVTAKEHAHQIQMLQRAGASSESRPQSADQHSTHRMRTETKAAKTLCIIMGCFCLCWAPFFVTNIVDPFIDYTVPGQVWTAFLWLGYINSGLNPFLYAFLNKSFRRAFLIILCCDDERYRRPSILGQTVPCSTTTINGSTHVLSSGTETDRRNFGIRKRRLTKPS

SMILES: CC(C)n1c(=O)n(C(=O)N[C@H]2C[C@H]3CC[C@@H](C2)N3CCCOC(=O)N2CCN(C(=O)C3CCCO3)CC2)c2ccccc21 (stereo partly drawn) [Example 1, 4-(tetrahydrofuran-2-carbonyl)piperazine-1-carboxylic acid 3-{(1S,3R,5R)-3-[(3-isopropyl-2-oxo-2,3-dihydrobenzoimidazole-1-carbonyl)amino]-8-aza-bicyclo[3.2.1]oct-8-yl}propyl ester]
- EC50: 3.98 nM
